The record followed here is paper PMC7968666, “The pharmacokinetics and drug-drug interactions of ivermectin in Aedes aegypti mosquitoes” (PLoS Pathogens, 2021).

Like-named read-outs stand apart in the source and are kept apart here.

In data set [1] the test system is Aedes aegypti mosquitoes. As to the kind of experiment: Drug effect on mosquito fecundity (eggs laid after 96 h). As to conditions: 4 days; IVM 0.1, KCZ 5, RIF 10, RTV 10, PBO 10 μg/ml in blood; 50 mosquitoes. It is filed as in vivo. The method, then: The mixtures were rotated at room temperature for 30 min to ensure a uniform drug distribution (Rotator Genie, Scientific Industries, Bohemia, USA). […] Twelve hours later, the tap water was also removed to starve the mosquitoes. […] The mosquitoes were then feeding from blood through the netting and the Parafilm membrane. […] The photoperiod of the climate chamber and the insectary were synchronised. […] The engorged mosquitoes were either directly frozen at -20°C or returned to the climate chamber for certain time periods to assess the PK. […] Blood feeding was done as described above. […] In contrast to the PK experiments, the mosquitoes had unlimited access to water because a moistened oviposition substrate was inserted into the paper cup. Fecundity was defined as the total number of eggs laid after 96 h. […] The filter paper served as the oviposition substrate. The cotton wool was soaked with fresh water and covered by a new filter paper after 48, 72, and 96 h post-treatment. After the assay, the eggs were left to mature for 24 h in the insectary. […] R Foundation for Statistical Computing, http://www.R-project.org, Vienna, Austria). Normality was assessed using the Shapiro-Wilk test. For normally distributed data (mortality, fecundity), group differences were assessed with one-way ANOVA testing, and, where applicable, followed up with Tukey's test. Group differences in fertility (not normally distributed) were evaluated with Kruskal-Wallis one-way analysis of variance, and Wilcoxon rank sum testing as post-hoc.

Data set [2] can be described thus: Pharmacokinetic and drug-drug interaction studies in blood-fed mosquitoes (concentration-time courses, population PK modelling). As to conditions: for Course / extent of elimination from the mosquitoes: IVM 0.1, KCZ 5, RIF 10, PBO 10 μg/ml in blood, up to 72 h; for Type of elimination kinetics in the mosquito: IVM 0.1, KCZ 5, RIF 10, RTV 10, PBO 10 μg/ml in blood; for Effect of the co-administered CYP modulator on the PK of ivermectin: ivermectin 0.1 μg/ml plus KCZ 5, RIF 10, RTV 10 or PBO 10 μg/ml in blood, 72 h.

For data set [3], the system named is Aedes aegypti mosquitoes. As to the kind of experiment: Drug effect on mosquito fertility (percentage of eggs hatched). It is filed as in vivo. As to conditions: 100 eggs laid 48-96 h post-treatment; IVM 0.1, KCZ 5, RIF 10, RTV 10, PBO 10 μg/ml in blood. As to the method:
The mixtures were rotated at room temperature for 30 min to ensure a uniform drug distribution (Rotator Genie, Scientific Industries, Bohemia, USA). […] Twelve hours later, the tap water was also removed to starve the mosquitoes. […] The mosquitoes were then feeding from blood through the netting and the Parafilm membrane. […] The photoperiod of the climate chamber and the insectary were synchronised. […] The engorged mosquitoes were either directly frozen at -20°C or returned to the climate chamber for certain time periods to assess the PK. […] Blood feeding was done as described above. […] In contrast to the PK experiments, the mosquitoes had unlimited access to water because a moistened oviposition substrate was inserted into the paper cup. […] Any hatched larva was counted and transferred to a rearing tray with a plastic pipette. The fertility was calculated as the percentage of eggs hatched. […] R Foundation for Statistical Computing, http://www.R-project.org, Vienna, Austria). Normality was assessed using the Shapiro-Wilk test. For normally distributed data (mortality, fecundity), group differences were assessed with one-way ANOVA testing, and, where applicable, followed up with Tukey's test. Group differences in fertility (not normally distributed) were evaluated with Kruskal-Wallis one-way analysis of variance, and Wilcoxon rank sum testing as post-hoc.

Data set [4] deals with Aedes aegypti mosquitoes. As to conditions: IVM 0.1, KCZ 5, RIF 10, RTV 10, PBO 10 μg/ml in blood, 50 mosquitoes.

Take `CC(=O)N1CCN(c2ccc(OCC3COC(Cn4ccnc4)(c4ccc(Cl)cc4Cl)O3)cc2)CC1` (stereo not shown) [ketoconazole]: in the data set with Aedes aegypti mosquitoes [1], the “Mosquito fecundity, Batch 1, mg eggs (4 days)” value is on record as 30.30 mg eggs; the “Mosquito fecundity, Batch 2, mg eggs (4 days)” value was 22.14 mg eggs; the “Mosquito fecundity, Batch 3, mg eggs (4 days)” value is 33.56 mg eggs. Also, in data set [2], the “Course / extent of elimination from the mosquitoes” value is reported as “only few samples could be quantified 36 h post-feeding”, the “Type of elimination kinetics in the mosquito” value is listed as “first order elimination” and the “Effect of the co-administered CYP modulator on the PK of ivermectin” value is recorded as “not altered”. The concentration at 0 h in data set [2] (female, Aedes aegypti, in vivo, CYP modulator concentration (ng/mg mosquito), Treatment KCZ + IVM (5 µg/ml KCZ, 0.1 µg/ml IVM), Batch 1, 0 h post feeding, single mosquitoes 1-20) came out at 639 ng/g. In addition, the concentration at 72 h in data set [2] (female, Aedes aegypti, in vivo, CYP modulator concentration (ng/mg mosquito), Treatment KCZ + IVM (5 µg/ml KCZ, 0.1 µg/ml IVM), Batch 1, 72 h post feeding, single mosquitoes 1-20) was determined as 0 ng/g. In addition, in data set [2] (listed as Ketoconazole), the “Effect of the co-administered CYP modulator on the PK of ivermectin” value was “No effect”. In data set [2] (ketoconazole 5 μg/ml with ivermectin 0.1 μg/ml in blood), the “Share of the dose excreted after 6 h” value was determined as 75%. In addition, in the data set on Aedes aegypti mosquitoes [3], the “Mosquito fertility, Batch 1, hatching rate” value worked out at 60%; the “Mosquito fertility, Batch 2, hatching rate” value is reported as 73%; the “Mosquito fertility, Batch 3, hatching rate” value came to 82%.
Turning to `CCCCOCCOCCOCc1cc2c(cc1CCC)OCO2` [piperonyl butoxide], in the data set with Aedes aegypti mosquitoes [1], the “Mosquito fecundity, Batch 1, mg eggs (4 days)” value is 32.86 mg eggs; the “Mosquito fecundity, Batch 2, mg eggs (4 days)” value came out at 20.66 mg eggs; the “Mosquito fecundity, Batch 3, mg eggs (4 days)” value stood at 35.34 mg eggs. In the data set with Aedes aegypti mosquitoes [3], the “Mosquito fertility, Batch 1, hatching rate” value is on record as 81%; the “Mosquito fertility, Batch 2, hatching rate” value is recorded as 71%; the “Mosquito fertility, Batch 3, hatching rate” value was found to be 86%.
For `CO[C@H]1/C=C/O[C@@]2(C)Oc3c(C)c(O)c4c(O)c(c(/C=N/N5CCN(C)CC5)c(O)c4c3C2=O)NC(=O)/C(C)=C\C=C\[C@H](C)[C@H](O)[C@@H](C)[C@@H](O)[C@@H](C)[C@H](OC(C)=O)[C@@H]1C` [rifampicin], the “Mosquito survival (%)” value with Aedes aegypti mosquitoes [4] (0 days post feeding) was 100%. Besides, the “Mosquito survival (%)” value in the data set with Aedes aegypti mosquitoes [4] (1 day post feeding) amounted to 100%. Besides, in the data set on Aedes aegypti mosquitoes [1], the “Mosquito fecundity, Batch 1, mg eggs (4 days)” value was 32.99 mg eggs; the “Mosquito fecundity, Batch 2, mg eggs (4 days)” value is 21.40 mg eggs; the “Mosquito fecundity, Batch 3, mg eggs (4 days)” value was found to be 36.14 mg eggs. In data set [2], the “Course / extent of elimination from the mosquitoes” value is “almost not eliminated during the first 2 days” and the “Type of elimination kinetics in the mosquito” value is on record as “accumulated over days”. In addition, the time of peak concentration (Tmax) in data set [2] (female, Aedes aegypti, in vivo) is approximately 36 h. For the same molecule, in the data set on Aedes aegypti mosquitoes [3], the “Mosquito fertility, Batch 1, hatching rate” value was 83%; the “Mosquito fertility, Batch 2, hatching rate” value amounted to 78%; the “Mosquito fertility, Batch 3, hatching rate” value came to 79%.
For `CC(C)c1nc(CN(C)C(=O)N[C@H](C(=O)N[C@@H](Cc2ccccc2)C[C@H](O)[C@H](Cc2ccccc2)NC(=O)OCc2cncs2)C(C)C)cs1` [ritonavir], in the data set on Aedes aegypti mosquitoes [1], the “Mosquito fecundity, Batch 1, mg eggs (4 days)” value was 38.37 mg eggs; the “Mosquito fecundity, Batch 2, mg eggs (4 days)” value is listed as 21.29 mg eggs; the “Mosquito fecundity, Batch 3, mg eggs (4 days)” value worked out at 33.90 mg eggs. Also, the concentration at 0 h in data set [2] (female, Aedes aegypti, whole mosquito (whole-body extract), oral, CYP modulator concentration (ng/mg mosquito), Treatment RTV + IVM (10 µg/ml RTV, 0.1 µg/ml IVM), Batch 3, 0 h post feeding, single mosquitoes 1-20) turned out to be 4230 ng/g. Besides, in the data set with Aedes aegypti mosquitoes [3], the “Mosquito fertility, Batch 1, hatching rate” value is recorded as 87%; the “Mosquito fertility, Batch 2, hatching rate” value is given as 74%; the “Mosquito fertility, Batch 3, hatching rate” value is given as 83%.

In general, Tmax refers to the time at which the peak concentration occurs.
